One data set concerns Zymoseptoria tritici. The data set can be described thus: Fungicidal activity: leaf blotch of wheat (SEPTTR), disease control on wheat seedlings. Format: in vivo, Zymoseptoria tritici on wheat plants (variety Yuma). Conditions: high volume application, 100 ppm. An outline of the steps: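 Wheat seedlings (cv. Yuma, first-leaf stage) sprayed to run-off with acetone/water solutions containing Triton X-100 (or EC formulations by track spray), inoculated with Z. tritici spores before or after treatment. Kept in a dew chamber, then greenhouse at 20 °C; percent control derived from disease severity relative to untreated plants.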

A further data set has as its system Puccinia triticina. The data set can be described thus: Fungicidal activity: wheat brown rust (PUCCRT), disease control on wheat seedlings. As to conditions: high volume application, 100 ppm. Format: in vivo, Puccinia triticina on wheat plants (variety Yuma). The gist of the method: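 Compounds in acetone diluted with nine volumes of water containing 110 ppm Triton X-100, sprayed to run-off on first-leaf Yuma wheat seedlings, inoculated with P. triticina spores before or after treatment. Plants held overnight in dark dew room at 22° C., 100% RH, then greenhouse at 24° C.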

[1] abbreviates: 24 h, 1 day protectant, read-out: SEPTTR 1DP disease control, HV activity at 100 ppm.
Where [2] appears, read: 72 h, 3 day curative, read-out: SEPTTR 3DC disease control, HV activity at 100 ppm.
[3] abbreviates: 24 h, 1 day protectant, read-out: PUCCRT 1DP disease control, HV activity at 100 ppm.
Setting [4] is: 72 h, 3 day curative, read-out: PUCCRT 3DC disease control, HV activity at 100 ppm.

Like-named read-outs stand apart in the source and are kept apart here.

One may read the melting point as the temperature, or range, at which the solid turns liquid.

`COc1cc(F)ccc1[C@@H](c1ccc(F)cc1)[C@H](C)OC(=O)[C@H](C)NC(=S)c1nccc(OC)c1O` [Compound 24] displayed a melting point of 54 to 70 °C. Further, the pest or weed control at 100 ppm in the data set with Zymoseptoria tritici (setting [1]) was over 80%. For the same compound, the pest or weed control at 100 ppm in the data set on Zymoseptoria tritici (setting [2]) was over 80%. The pest or weed control at 100 ppm in the data set with Puccinia triticina (setting [3]) is over 80%. The pest or weed control at 100 ppm in the data set on Puccinia triticina (setting [4]) is at most 80%.
In the case of `CCC[C@@H](Oc1ccc(C)cc1)[C@H](C)OC(=O)[C@H](C)NC(=S)c1nccc(OC)c1O` [Compound 37], the melting point was 125 to 133 °C. The pest or weed control at 100 ppm in the data set on Zymoseptoria tritici (setting [1]) was at most 80%. The pest or weed control at 100 ppm with Puccinia triticina (setting [3]) is over 80%. Besides, in the data set with Puccinia triticina (setting [4]), the pest or weed control at 100 ppm was over 80%.
In turn, `COc1ccnc(C(=S)N[C@@H](C)C(=O)O[C@@H](C(C)C)[C@@H](C)Oc2ccccc2)c1O` [Compound 27] returned a melting point of 46 to 63 °C. The pest or weed control at 100 ppm in the data set with Zymoseptoria tritici (setting [2]) was at most 80%. In the data set on Puccinia triticina (setting [3]), the pest or weed control at 100 ppm was at most 80%.
Consider `COc1ccnc(C(=S)N[C@@H](C)C(=O)O[C@@H](C)[C@H](Oc2cccc(F)c2)C(C)C)c1O` [Compound 33], for which the melting point lay within 132 to 141 °C. Besides, the pest or weed control at 100 ppm with Zymoseptoria tritici (setting [1]) was over 80%. For the same compound, the pest or weed control at 100 ppm in the data set with Zymoseptoria tritici (setting [2]) was at most 80%. Moreover, the pest or weed control at 100 ppm in the data set on Puccinia triticina (setting [3]) is over 80%. For the same compound, in the data set on Puccinia triticina (setting [4]), the pest or weed control at 100 ppm was over 80%.
As for `COc1ccnc(C(=S)N[C@@H](C)C(=O)O[C@@H](C)[C@H](Oc2ccccc2)c2ccc(F)cc2Cl)c1O` [Compound 30], the melting point was in the range of 50 to 60 °C. Further, in the data set on Zymoseptoria tritici (setting [1]), the pest or weed control at 100 ppm was over 80%. Moreover, the pest or weed control at 100 ppm in the data set on Zymoseptoria tritici (setting [2]) was over 80%. Besides, the pest or weed control at 100 ppm in the data set on Puccinia triticina (setting [3]) was over 80%. Also, the pest or weed control at 100 ppm with Puccinia triticina (setting [4]) was at most 80%.
In turn, `COc1ccnc(C(=S)N[C@@H](C)C(=O)O[C@H](C(C)C)[C@H](C)Oc2ccc(F)cc2)c1O` [Compound 36] had a melting point of 141 to 148 °C. Further, the pest or weed control at 100 ppm in the data set on Zymoseptoria tritici (setting [1]) was over 80%. The pest or weed control at 100 ppm in the data set with Zymoseptoria tritici (setting [2]) was at most 80%. Besides, the pest or weed control at 100 ppm in the data set with Puccinia triticina (setting [3]) is over 80%. For the same compound, the pest or weed control at 100 ppm with Puccinia triticina (setting [4]) is over 80%.
Compound `COc1ccnc(C(=S)N[C@@H](C)C(=O)O[C@@H](C)[C@H](Oc2ccc(Cl)cc2)C2CCCC2)c1O` [Compound 38] came in with a melting point of 49 to 57 °C. Besides, in the data set with Zymoseptoria tritici (setting [1]), the pest or weed control at 100 ppm is over 80%. Further, in the data set with Zymoseptoria tritici (setting [2]), the pest or weed control at 100 ppm is at most 80%. In addition, in the data set with Puccinia triticina (setting [3]), the pest or weed control at 100 ppm was over 80%. Also, the pest or weed control at 100 ppm in the data set with Puccinia triticina (setting [4]) was over 80%.
The compound `COc1cc(F)ccc1C(c1ccc(F)cc1OC)[C@H](C)OC(=O)[C@H](C)NC(=S)c1nccc(OC)c1O` [Compound 23] yielded a melting point of 59 to 75 °C. In addition, the pest or weed control at 100 ppm in the data set on Zymoseptoria tritici (setting [1]) was over 80%. The pest or weed control at 100 ppm in the data set on Zymoseptoria tritici (setting [2]) is over 80%. Further, the pest or weed control at 100 ppm with Puccinia triticina (setting [3]) is over 80%. Moreover, in the data set with Puccinia triticina (setting [4]), the pest or weed control at 100 ppm was at most 80%.
For the compound `COc1ccnc(C(=S)N[C@@H](C)C(=O)O[C@@H](C)C(c2ccc(F)cc2F)c2ccc(F)cc2F)c1O` [Compound 32], the melting point was 50 to 61 °C. In addition, the pest or weed control at 100 ppm in the data set with Zymoseptoria tritici (setting [1]) was at most 80%. Further, the pest or weed control at 100 ppm in the data set on Zymoseptoria tritici (setting [2]) is over 80%. In the data set with Puccinia triticina (setting [3]), the pest or weed control at 100 ppm was at most 80%. In the data set on Puccinia triticina (setting [4]), the pest or weed control at 100 ppm was at most 80%.
`COc1ccnc(C(=S)N[C@@H](C)C(=O)O[C@@H](C)[C@@H](c2ccccc2)c2ccc(F)cc2C)c1O` [Compound 26]: the melting point lay within 152 to 159 °C. Besides, the pest or weed control at 100 ppm with Zymoseptoria tritici (setting [1]) is over 80%. Further, the pest or weed control at 100 ppm in the data set with Zymoseptoria tritici (setting [2]) was over 80%. The pest or weed control at 100 ppm in the data set with Puccinia triticina (setting [3]) was over 80%. Also, in the data set with Puccinia triticina (setting [4]), the pest or weed control at 100 ppm is at most 80%.
Compound `COc1ccnc(C(=S)N[C@@H](C)C(=O)O[C@@H](C)[C@@H](c2ccc(F)cc2)c2ccc(F)cc2C)c1O` [Compound 31] showed a melting point of 57 to 68 °C. Further, in the data set with Zymoseptoria tritici (setting [1]), the pest or weed control at 100 ppm is over 80%. Moreover, the pest or weed control at 100 ppm with Zymoseptoria tritici (setting [2]) is over 80%. Besides, the pest or weed control at 100 ppm with Puccinia triticina (setting [3]) was over 80%. For the same compound, the pest or weed control at 100 ppm in the data set with Puccinia triticina (setting [4]) was at most 80%.
Consider `COc1ccnc(C(=S)N[C@@H](C)C(=O)O[C@@H](C)[C@H](Oc2ccccc2)c2ccc(F)cc2C)c1O` [Compound 35], for which the melting point is 45 to 57 °C. Further, in the data set with Zymoseptoria tritici (setting [1]), the pest or weed control at 100 ppm is over 80%. Besides, the pest or weed control at 100 ppm in the data set with Zymoseptoria tritici (setting [2]) was over 80%. Further, in the data set on Puccinia triticina (setting [3]), the pest or weed control at 100 ppm was over 80%. Also, the pest or weed control at 100 ppm with Puccinia triticina (setting [4]) was at most 80%.

The values are drawn from US10172358B2, “Thiopicolinamide compounds with fungicidal activity” (Dow AgroSciences LLC, priority 2016, dated 2019).
